Assay results published in article PMC8000919, “Validation of an LC-MS/MS Method to Quantify the New TRPC6 Inhibitor SH045 (Larixyl N-methylcarbamate) and Its Application in an Exploratory Pharmacokinetic Study in Mice” (Pharmaceuticals, 2021).
Where two headings read alike, the source gives them in different places.

Key:
[1] = Exploratory plasma pharmacokinetics in mice after single i.p. administration, non-compartmental analysis; format: in vivo
Description: The practicability of the validated method for SH045 quantification was verified in a first exploratory pharmacokinetic study in mice. Male C57BL/6 mice (25–30 g body weight, Charles River, Sulzfeld, Germany) were housed in groups under standard conditions, allowed access to lab chow and water ad libitum. Animal experiments were performed according to the national regulations of animal welfare and were ethically approved by the local committee on animal welfare and the local authorities. Animal experiments were performed under strict consideration of the 3R principles (replace, reduce, refine), fully complying with the ARRIVE guidelines.
Solutions of SH045 for i.p. administration were prepared with DMSO (final concentration 0.5%) and Kolliphor® EL (5% in water). SH045 was administered i.p. as a single dose of 20 mg/kg body weight. Blood was collected from mice tail vein at 5, 15, 30, 60, 120, 180 and 360 min after administration via heparinized catheters. After centrifugation at 4000× g at 4 °C for 10 min, plasma was stored at −80 °C until analysis.
For sample preparation, 20 µL of thawed plasma were mixed with 2 µL of IS (50 µg/mL), vortexed for 30 s, added with 178 µL ice-cold ACN and shaken vigorously for 5 min. After centrifugation at 104,000× g for 15 min, the supernatant was filtered through a 0.2 µm pore-size syringe filter (Phenex-RC 4 mm, Phenomenex, Aschaffenburg, Germany) and stored in the autosampler at 6 °C until analysis by LC-MS/MS, as mentioned above.
The evaluation of basic pharmacokinetic parameters of SH045 (20 mg/kg, i.p.) following a single dose was performed by non-compartmental analysis using a commercially available software program Kinetica, version 5.1 (Thermo Fisher Scientific, Waltham, MA, USA). The Cmax and Tmax were obtained directly from the plasma concentration-time curve. The slope of the terminal phase of the SH045 concentration profile (ʎz) was estimated as absolute values from >4 data points using a log-linear regression analysis.
The area under the plasma concentration-time curve (AUC) for the time (t) providing the final measurable concentration (AUClast) was calculated using the log-linear trapezoidal rule.
The AUC0–∞ was then determined as AUClast + Clast/ʎz, where Clast is the last measurable concentration. The systemic total body clearance from plasma (CLp) was calculated as applied dose divided by AUC0–∞. MRT was calculated as AUMC0–∞/AUC0–∞, where area under the first-moment curve (AUMC) was defined as area under the curve of the product of time and the plasma drug concentration versus time from zero to infinity.
The volume of distribution, VZ, was calculated as CLp/ʎz. Finally, the AUCextra extrapolates the AUC from the last measured time point to infinity.

[2] = Plasma protein binding (PPB) by ultrafiltration; format: in vitro ADME; conditions: mouse plasma
Description: PPB of SH045 in mice plasma was determined at two concentrations, 100 and 800 ng/mL, using ultrafiltration. For that, 2 µL of working solutions of SH045 in DMSO (final concentration […]) were mixed with 298 µL blank plasma and incubated at 37 °C for 30 min. To determine the total concentration of SH045, 60 µL sample were taken out. The remaining 240 µL of spiked plasma were transferred to a centrifugal filter (Centrifugal Filter Units, 30 kDa cut-off, Millipore, County Cork, Ireland) and centrifuged at room temperature for 10 min at 1000× g. The filtrates were analyzed for the unbound SH045. The PPB was calculated as PPB (%) = (Ct − Cf)/Ct × 100, with Ct as total SH045 concentration in spiked plasma and Cf as unbound SH045 concentration in the filtrate.

[3] = Stability in stock and working solutions; format: physicochemical; conditions: nominal 1000 ng/mL
Description: Analytic stock solutions of SH045 and of IS (1 mg/mL each) were prepared in ACN and stored at −20 °C. Working solutions of SH045 and of IS (50 µg/mL) were freshly prepared by dilution with water/ACN 1:1 (v/v). Calibration and QC samples were prepared by addition of 2 μL SH045 working solutions and 2 μL IS solution to 18 μL of blank plasma, further processed identically to the preparation of plasma (see below). Freshly prepared calibration samples for SH045 in plasma comprised eight concentration levels analyzed in duplicates (2, 5, 10, 100, 200, 800, 1200 and 1600 ng/mL).
The stability of SH045 and IS in stock solutions stored at −20 °C for 28 days and in working solutions stored at 4 °C for 12 h was determined comparing the analyzed with the nominal concentration and accepted when accuracy was within 15%.

[4] = Stability in plasma QC samples under storage conditions; format: physicochemical, mice; conditions: for Stability in autosampler, Accuracy / Stability in autosampler, Mean ± SEM: extracted plasma QC samples, 6 °C; for Stability in autosampler, Accuracy / Stability in autosampler, Mean ± SEM / Freeze and thaw stability, Accuracy / Freeze and thaw stability, Mean ± SEM: 12 h; for Short-term stability, Accuracy / Short-term stability, Mean ± SEM / Freeze and thaw stability, Accuracy / Freeze and thaw stability, Mean ± SEM / Long-term stability, Accuracy / Long-term stability, Mean ± SEM: plasma QC samples; for Short-term stability, Accuracy / Short-term stability, Mean ± SEM: 25 °C, 4 h; for Freeze and thaw stability, Accuracy / Freeze and thaw stability, Mean ± SEM / Long-term stability, Accuracy / Long-term stability, Mean ± SEM: −20 °C; for Freeze and thaw stability, Accuracy / Freeze and thaw stability, Mean ± SEM: 3 cycles; for Long-term stability, Accuracy / Long-term stability, Mean ± SEM: 30 days
Description: […] The accuracy of the mean concentration at each of the three QC levels was accepted within ±15% of nominal concentration. All stability experiments were carried out in three replicates.

TRPC6 [5] = tested on: TRPC6; design: method as in PMID 29522264; conditions: patch-clamp recordings; read-out: IC50 to block inward currents; cited from earlier work
TRPC6 [6] = tested on: TRPC6; design: method as in PMID 29522264; conditions: stably TRPC6-transfected HEK293 cells; read-out: IC50 to inhibit Ca2+ influx; cited from earlier work
TRPC3 = tested on: TRPC3; design: method as in PMID 29522264; conditions: TRPC6 over TRPC3; cited from earlier work
[7] = tested on: TRPC3/6 channels of rat PASMC; design: method as in PMID 29522264; conditions: 1-oleyl-2-acetyl-sn-glycerol (OAG)-induced; cited from earlier work
[8] = tested on: ischemic lungs explanted from mice; design: method as in PMID 29522264; conditions: ex vivo model of LIRE; cited from earlier work
[9] = male, C57BL/6, mouse, ip, mice plasma, single dose 20 mg/kg body weight
[10] = stock solution, −20 °C, 28 days

plasma concentration relative to IC50 for Ca2+ influx ([1]; five hours after administration of 20 mg/kg): at least two-fold higher
AUC(0-inf) [1, 9]: 1470 ng·h/mL
AUC(0-t) [1, 9]: 1410 ng·h/mL
Cmax [1, 9]: 756 ng/mL
MRT [1, 9]: 1.9 h
Tmax [1, 9]: 0.5 h
half-life ([1]; male, C57BL/6, mouse, plasma, ip, 20 mg/kg, mice plasma, single dose 20 mg/kg body weight): 1.3 h
T1/2 ([1]; mice plasma, single dose 20 mg/kg body weight, i.p., 20 mg/kg): 1.31 h
% AUC (AUCextra as percent) ([1]; mice plasma, single dose 20 mg/kg i.p., extrapolated part of AUC): 4.3%
fraction unbound at 30 min, 100 ng/mL ([2]; 100 ng/mL SH045, ultrafiltration): 0.022
fraction unbound at 30 min, 800 ng/mL ([2]; 800 ng/mL SH045, ultrafiltration): 0.003
Stability, Accuracy [3, 10]: 106.6%
Stability, Mean ± SEM [3, 10]: 1066 ± 9 ng/mL
Stability, Accuracy ([3]; working solution, 4 °C, 12 h): 103.7%
Stability, Mean ± SEM ([3]; working solution, 4 °C, 12 h): 1037 ± 10 ng/mL
Stability in autosampler, Accuracy ([4]; nominal 5 ng/mL): 99.0%
Stability in autosampler, Mean ± SEM ([4]; nominal 5 ng/mL): 5.0 ± 0.2 ng/mL
Stability in autosampler, Accuracy ([4]; nominal 800 ng/mL): 100.8%
Stability in autosampler, Mean ± SEM ([4]; nominal 800 ng/mL): 807 ± 28 ng/mL
Stability in autosampler, Accuracy ([4]; nominal 1200 ng/mL): 104.7%
Stability in autosampler, Mean ± SEM ([4]; nominal 1200 ng/mL): 1256 ± 50 ng/mL
Short-term stability, Accuracy ([4]; nominal 5 ng/mL): 107.6%
Short-term stability, Mean ± SEM ([4]; nominal 5 ng/mL): 5.4 ± 0.1 ng/mL
Short-term stability, Accuracy ([4]; nominal 800 ng/mL): 101.9%
Short-term stability, Mean ± SEM ([4]; nominal 800 ng/mL): 816 ± 2 ng/mL
Short-term stability, Accuracy ([4]; nominal 1200 ng/mL): 98.8%
Short-term stability, Mean ± SEM ([4]; nominal 1200 ng/mL): 1186 ± 36 ng/mL
Freeze and thaw stability, Accuracy ([4]; nominal 5 ng/mL): 97.2%
Freeze and thaw stability, Mean ± SEM ([4]; nominal 5 ng/mL): 4.9 ± 0.2 ng/mL
Freeze and thaw stability, Accuracy ([4]; nominal 800 ng/mL): 90.1%
Freeze and thaw stability, Mean ± SEM ([4]; nominal 800 ng/mL): 721 ± 8 ng/mL
Freeze and thaw stability, Accuracy ([4]; nominal 1200 ng/mL): 90.2%
Freeze and thaw stability, Mean ± SEM ([4]; nominal 1200 ng/mL): 1083 ± 41 ng/mL
Long-term stability, Accuracy ([4]; nominal 5 ng/mL): 107.3%
Long-term stability, Mean ± SEM ([4]; nominal 5 ng/mL): 5.4 ± 0.3 ng/mL
Long-term stability, Accuracy ([4]; nominal 800 ng/mL): 95.4%
Long-term stability, Mean ± SEM ([4]; nominal 800 ng/mL): 763 ± 9 ng/mL
Long-term stability, Accuracy ([4]; nominal 1200 ng/mL): 99.9%
Long-term stability, Mean ± SEM ([4]; nominal 1200 ng/mL): 1199 ± 29 ng/mL
SMILES: C=C[C@@](C)(O)CC[C@H]1C(=C)C[C@H](OC(=O)NC)[C@H]2C(C)(C)CCC[C@]12C [SH045, (1S,4S,4aR,8aS)-4-((S)-3-Hydroxy-3-methylpent-4-en-1-yl)-4a,8,8-trimethyl-3-methylenedecahydronaphthalen-1-yl methylcarbamate]
IC50 (TRPC6 [5]): 5.8 nM
IC50 (TRPC6 [6]): 63 nM
subtype selectivity over TRPC3 (TRPC3): 13 fold
effect on OAG-induced Ca2+ entry [7]: inhibited
edema formation after reperfusion [8]: reduced edema formation
